Assay results from the supplement of paper PMC9262897, “Low-cost anti-mycobacterial drug discovery using engineered E. coli” (Nature Communications, 2022).

Assays:
E. coli TESEC Mtb Alr = assay: growth (OD600 after 10 h, mean); higher = more growth;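 further: E. coli lacking its native Alr, complemented by codon-optimized Mtb Alr under a feedback-controlled arabinose-inducible plasmid circuit, grown in defined medium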
Protocol: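 TESEC Mtb Alr E. coli grown in a two-dimensional dilution series of drug (µM) and arabinose (12 to 1e8 nM). Growth is read as OD600 after 10 h; values are means of 3 biological replicates.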

[1] = system: E. coli TESEC strain (Mtb target enzyme); assay: growth (OD600 after 10 h); higher = more growth
Protocol: (§1)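 Chemical-genetic validation profiles: TESEC strains (Mtb Asd or DapB, arabinose-inducible) or the wild-type control grown in a two-dimensional dilution series of drug (µM) and arabinose. Growth is read as OD600 after 10 h in triplicate.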

[2] = system: E. coli wild-type control; assay: growth (OD600 after 10 h); higher = more growth
Protocol: as §1

N[C@@H]1CONC1=O [D-cycloserine]
growth, E. coli TESEC Mtb Alr
Conditions | drug 7.81 µM | drug 15.62 µM | drug 31.25 µM | drug 62.5 µM | drug 125 µM
arabinose 12 nM | 0.367 | 0.327 | 0.0519 | 0.0505 | –
arabinose 24 nM | 0.363 | 0.325 | 0.0523 | 0.0512 | –
arabinose 48 nM | 0.367 | 0.326 | 0.0519 | 0.0518 | –
arabinose 95 nM | 0.358 | 0.336 | 0.0543 | 0.0501 | –
arabinose 191 nM | 0.376 | 0.332 | 0.121 | 0.0494 | –
arabinose 381 nM | 0.373 | 0.348 | 0.254 | 0.05 | –
arabinose 763 nM | 0.382 | 0.365 | 0.305 | 0.0501 | –
arabinose 1526 nM | 0.38 | 0.373 | 0.349 | 0.131 | 0.0482
arabinose 3052 nM | 0.367 | 0.373 | 0.386 | 0.29 | 0.0489
arabinose 6104 nM | 0.357 | 0.356 | 0.411 | 0.348 | 0.0678
arabinose 12207 nM | 0.329 | 0.328 | 0.375 | 0.378 | 0.251
arabinose 24414 nM | 0.288 | 0.298 | 0.315 | 0.371 | –
arabinose 48828 nM | 0.285 | 0.291 | 0.29 | 0.341 | –
arabinose 97656 nM | 0.29 | 0.284 | 0.292 | 0.306 | –
arabinose 195312 nM | 0.306 | 0.3 | 0.311 | 0.31 | –
arabinose 390625 nM | 0.318 | 0.32 | 0.322 | 0.327 | –
arabinose 781250 nM | 0.307 | 0.304 | 0.312 | 0.32 | –
arabinose 1562500 nM | 0.282 | 0.283 | 0.29 | 0.294 | –
arabinose 3125000 nM | 0.269 | 0.264 | 0.272 | 0.276 | –
arabinose 6250000 nM | 0.253 | 0.247 | 0.25 | 0.252 | –
arabinose 12500000 nM | 0.237 | 0.234 | 0.248 | 0.239 | –
arabinose 25000000 nM | 0.225 | 0.229 | 0.227 | 0.231 | –
arabinose 50000000 nM | 0.195 | 0.204 | 0.199 | 0.204 | –
arabinose 100000000 nM | 0.154 | 0.163 | 0.16 | 0.16 | –

N=C(N)c1ccc(OCCCCCOc2ccc(C(=N)N)cc2)cc1 [Pentamidine] (TESEC target enzyme: Mtb DapB)
growth
Conditions | drug 0.7 µM | drug 1.5 µM | drug 3.5 µM | drug 7.8 µM | drug 17.6 µM | drug 39.5 µM | drug 88.9 µM
[1], arabinose 15560 nM | 0.117 | 0.131 | – | – | – | – | –
[1], arabinose 28008 nM | 0.207 | 0.18 | – | – | – | – | –
[1], arabinose 50414 nM | 0.186 | 0.187 | – | – | – | – | –
[1], arabinose 90744 nM | 0.207 | 0.195 | – | – | – | – | –
[1], arabinose 163340 nM | 0.225 | 0.21 | – | – | – | – | –
[1], arabinose 294012 nM | 0.218 | 0.235 | – | – | – | – | –
[1], arabinose 529221 nM | 0.208 | 0.192 | – | – | – | – | –
[1], arabinose 952599 nM | 0.2 | 0.225 | – | – | – | – | –
[1], arabinose 1714678 nM | 0.16 | 0.182 | – | – | – | – | –
[1], arabinose 3086420 nM | 0.133 | 0.153 | – | – | – | – | –
[1], arabinose 5555556 nM | 0.131 | 0.146 | – | – | – | – | –
[1], arabinose 10000000 nM | 0.127 | 0.124 | – | – | – | – | –
[2], arabinose 15560 nM | 0.275 | 0.32 | 0.321 | 0.289 | 0.269 | 0.258 | –
[2], arabinose 28008 nM | 0.317 | 0.309 | 0.301 | 0.293 | 0.231 | 0.259 | –
[2], arabinose 50414 nM | 0.321 | 0.318 | 0.304 | 0.291 | 0.235 | 0.233 | –
[2], arabinose 90744 nM | 0.29 | 0.289 | 0.305 | 0.312 | 0.261 | 0.246 | –
[2], arabinose 163340 nM | 0.311 | 0.319 | 0.308 | 0.271 | 0.257 | 0.256 | –
[2], arabinose 294012 nM | 0.207 | 0.29 | 0.277 | 0.313 | 0.271 | 0.249 | –
[2], arabinose 529221 nM | 0.168 | 0.225 | 0.257 | 0.302 | 0.257 | 0.251 | –
[2], arabinose 952599 nM | 0.163 | 0.141 | 0.201 | 0.236 | 0.221 | 0.239 | 0.206
[2], arabinose 1714678 nM | 0.137 | 0.161 | 0.193 | 0.18 | 0.179 | 0.231 | 0.161
[2], arabinose 3086420 nM | 0.13 | 0.149 | 0.156 | 0.185 | 0.113 | 0.145 | 0.157
[2], arabinose 5555556 nM | 0.125 | 0.126 | 0.177 | 0.203 | 0.12 | 0.136 | 0.16
[2], arabinose 10000000 nM | 0.115 | 0.151 | 0.13 | 0.16 | 0.129 | 0.131 | –

Nc1nc2ccc(OC(F)(F)F)cc2s1 [Riluzole] (TESEC target enzyme: Mtb Asd)
growth
Conditions | drug 1.7 µM | drug 3.9 µM | drug 8.7 µM | drug 19.5 µM | drug 43.9 µM | drug 98.8 µM | drug 222.2 µM
[1], arabinose 15560 nM | 0.165 | 0.155 | – | – | – | – | –
[1], arabinose 28008 nM | 0.133 | 0.157 | – | – | – | – | –
[1], arabinose 50414 nM | 0.166 | 0.157 | – | – | – | – | –
[1], arabinose 90744 nM | 0.192 | 0.171 | – | – | – | – | –
[1], arabinose 163340 nM | 0.22 | 0.199 | – | – | – | – | –
[1], arabinose 294012 nM | 0.261 | 0.239 | – | – | – | – | –
[1], arabinose 529221 nM | 0.271 | 0.263 | – | – | – | – | –
[1], arabinose 952599 nM | 0.28 | 0.312 | – | – | – | – | –
[1], arabinose 1714678 nM | 0.284 | 0.319 | – | – | – | – | –
[1], arabinose 3086420 nM | 0.246 | 0.237 | – | – | – | – | –
[1], arabinose 5555556 nM | 0.236 | 0.223 | – | – | – | – | –
[1], arabinose 10000000 nM | 0.215 | 0.224 | – | – | – | – | –
[2], arabinose 15560 nM | 0.226 | 0.226 | 0.232 | 0.219 | 0.202 | 0.188 | –
[2], arabinose 28008 nM | 0.2085 | 0.207 | 0.219 | 0.223 | 0.208 | 0.197 | –
[2], arabinose 50414 nM | 0.234 | 0.217 | 0.222 | 0.235 | 0.207 | 0.202 | –
[2], arabinose 90744 nM | 0.232 | 0.243 | 0.222 | 0.286 | 0.22 | 0.205 | –
[2], arabinose 163340 nM | 0.227 | 0.236 | 0.232 | 0.237 | 0.217 | 0.216 | –
[2], arabinose 294012 nM | 0.229 | 0.227 | 0.2601 | 0.231 | 0.221 | 0.216 | –
[2], arabinose 529221 nM | 0.227 | 0.236 | 0.226 | 0.208 | 0.221 | 0.231 | –
[2], arabinose 952599 nM | 0.2317 | 0.226 | 0.263 | 0.207 | 0.233 | 0.235 | 0.123
[2], arabinose 1714678 nM | 0.195 | 0.2 | 0.235 | 0.193 | 0.233 | 0.213 | 0.115
[2], arabinose 3086420 nM | 0.148 | 0.149 | 0.183 | 0.214 | 0.236 | 0.231 | 0.122
[2], arabinose 5555556 nM | 0.154 | 0.157 | 0.196 | 0.157 | 0.171 | 0.19 | 0.126
[2], arabinose 10000000 nM | 0.148 | 0.165 | 0.146 | 0.21 | 0.162 | 0.202 | –

CC(C)c1ccc2oc3nc(N)c(C(=O)O)cc3c(=O)c2c1 [Amlexanox]
growth, E. coli TESEC Mtb Alr
Conditions | drug 15.62 µM | drug 31.25 µM | drug 62.5 µM | drug 125 µM | drug 250 µM
arabinose 12 nM | 0.4 | 0.356 | 0.319 | 0.272 | –
arabinose 24 nM | 0.391 | 0.357 | 0.317 | 0.266 | –
arabinose 48 nM | 0.385 | 0.352 | 0.318 | 0.261 | –
arabinose 95 nM | 0.382 | 0.348 | 0.31 | 0.265 | –
arabinose 191 nM | 0.377 | 0.349 | 0.319 | 0.262 | –
arabinose 381 nM | 0.378 | 0.346 | 0.309 | 0.259 | –
arabinose 763 nM | 0.382 | 0.348 | 0.305 | 0.261 | –
arabinose 1526 nM | 0.386 | 0.352 | 0.304 | 0.259 | 0.264
arabinose 3052 nM | 0.375 | 0.357 | 0.301 | 0.257 | 0.264
arabinose 6104 nM | 0.367 | 0.336 | 0.29 | 0.262 | 0.266
arabinose 12207 nM | 0.325 | 0.306 | 0.278 | 0.275 | 0.281
arabinose 24414 nM | 0.282 | 0.276 | 0.274 | 0.285 | –
arabinose 48828 nM | 0.264 | 0.266 | 0.28 | 0.295 | –
arabinose 97656 nM | 0.254 | 0.261 | 0.28 | 0.289 | –
arabinose 195312 nM | 0.268 | 0.273 | 0.291 | 0.284 | –
arabinose 390625 nM | 0.289 | 0.298 | 0.305 | 0.277 | –
arabinose 781250 nM | 0.31 | 0.317 | 0.304 | 0.268 | –
arabinose 1562500 nM | 0.312 | 0.313 | 0.297 | 0.265 | –
arabinose 3125000 nM | 0.307 | 0.302 | 0.292 | 0.259 | –
arabinose 6250000 nM | 0.301 | 0.297 | 0.286 | 0.255 | –
arabinose 12500000 nM | 0.302 | 0.293 | 0.284 | 0.248 | –
arabinose 25000000 nM | 0.298 | 0.299 | 0.282 | 0.235 | –
arabinose 50000000 nM | 0.286 | 0.282 | 0.259 | 0.213 | –
arabinose 100000000 nM | 0.216 | 0.212 | 0.216 | 0.16 | –
